According to patent publication US20100304426A1, “Analytical Methods for Measuring Synthetic Progesterone” (priority 2009, published 2010):
Where two headings read alike, the source gives them in different places. Marks after values point to notes of the source that are not given here. Values belong to the molecule of their own block, whether it stands above or below them.

Legend:
[1] = clinical; conditions: human, in vivo, 200 mg
Source text: A definitive low-level LC/MS/MS analytical method to determine the concentrations of synthetic progesterone in human plasma is described. Instrumentation used in this example includes an Applied Biosystems Q-Trap 4000 system using Analyst® 1.4.2 software, Shimadzu LC-20AD HPLC pumps and a LEAP HTC PAL Autosampler. As understood by a person skilled in the art, various similar or equivalent pieces of instrumentation can be used to perform this method. It is also recognized that improved instrumentation can be introduced utilizing equivalent or similar principles of analysis to perform this method similarly or better by being faster, more sensitive, more accurate or more robust relative to the instrumentation used herein. Analyze the pregnant female plasma isotopic ratio standard seven consecutive times. Analyze the synthetic isotopic ratio standard at least seven consecutive times. Analyze the plate beginning with the first calibration sample. Using the data from the seven injections of pregnant female plasma calculate the average area for the progesterone transition and for the progesterone isotope transition. Calculate the ratio by dividing the average area of the progesterone peak by the average area of the isotope peak. This is the natural progesterone ratio. Using the data from the seven injections of the Synthetic Standard calculate the average area for the progesterone transition and for the progesterone isotope transition. Calculate the ratio by dividing the average area of the progesterone peak by the average area of the isotope peak. This is the synthetic progesterone ratio. […] In addition, data presented herein are for fasted post-menopausal women. Fasting can affect progesterone uptake. In this example, healthy, fasted, post-menopausal women orally ingest 1×200 mg progesterone. Plasma samples are obtained from 2 h pre-dose to 24 h post-dose. […] Cmax is the maximum observed concentration and Tmax the time at which Cmax took place. Clast is the value of the last measurable concentration, and […].

[2] = reported; cited from earlier work
[3] = design: AUC / Cmax: unit not given beside the values; conditions: from package insert, total progesterone, cited from earlier work

AUClast ([1]; po): 3.84 ng·h/mL
Tmax ([1]; po): 2.33^a h
SMILES: CC(=O)[C@H]1CC[C@H]2[C@@H]3CCC4=CC(=O)CC[C@]4(C)[C@H]3CC[C@]12C [Endogenous Progesterone]

SMILES: CC(=O)[C@H]1CC[C@H]2[C@@H]3CCC4=CC(=O)CC[C@]4(C)[C@H]3CC[C@]12C [progesterone]
half life in the circulation [2]: only a few minutes

AUC ([1]; female): 1.6 ng·h/mL
Cmax ([1]; female): 3.1 ± 2.3
Cmax ([1]; female, Cmax): 1.05 ng/mL
Tmax ([1]; female, po): 2.63 h
AUC(0-t) ([1]; female, po, AUC0-4 h): 1.01 to 2.37 ng·h/mL
AUC(0-t) ([1]; female, po, AUClast): 2.11 ng·h/mL
Cmax ([1]; female, po, Cmax): 0.62 to 1.6 ng/mL
SMILES: CC(=O)[C@H]1CC[C@H]2[C@@H]3CCC4=CC(=O)CC[C@]4(C)[C@H]3CC[C@]12C [PROMETRIUM, pregn-4-ene-3,20-dione]
AUC ([3]; 100 mg after 5 daily doses): 43.3 + 30.8
Cmax ([3]; 100 mg after 5 daily doses): 17.3 + 21.9
Cmax ([3]; 200 mg after 5 daily doses): 38.1 + 37.8
Tmax ([3]; 200 mg after 5 daily doses): 2.3 + 1.4
AUC ([3]; 300 mg after 5 daily doses): 175.7 + 170.3
Cmax ([3]; 300 mg after 5 daily doses): 60.6 + 72.5
Tmax ([3]; 300 mg after 5 daily doses): 1.7 + 0.6

AUClast ([1]; po): 6.47 ng·h/mL
Tmax ([1]; po): 2.00 h
SMILES: CC(=O)[C@H]1CC[C@H]2[C@@H]3CCC4=CC(=O)CC[C@]4(C)[C@H]3CC[C@]12C [Total Progesterone]
